Laboratory results from patent publication US6504058B1 (priority 1997, dated 2003).

Columns and labels:
Pyricularia oryzae = format: in vivo, Pyricularia oryzae (on rice seedlings); settings: 200 ppm test suspension sprayed to run-off (equivalent to 500 g/ha) on rice seedlings; 100 = 100% disease control, 0 = no control; # = significant activity
Botrytis cinerea = assay: Test E: gray mold, preventive spray on cucumber seedlings, disease rating; format: in vivo, Botrytis cinerea (on cucumber seedlings); settings: 200 ppm test suspension sprayed to run-off (equivalent to 500 g/ha) on cucumber seedlings; 100 = 100% disease control, 0 = no control; # = significant activity
Summary of the method: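 Cucumber seedlings sprayed to run-off with 200 ppm suspension (equivalent to 500 g/ha), inoculated next day with B. cinerea spores. Kept 48 h saturated at 20 °C, then 5 days in growth chamber at 20 °C; disease control rated 0–100 relative to controls.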

[1] = test system: Erysiphe graminis f. sp. tritici; assay: Test A: wheat powdery mildew, preventive spray on wheat seedlings, disease rating; format: in vivo, Erysiphe graminis f. sp. tritici (on wheat seedlings); settings: 200 ppm test suspension sprayed to run-off (equivalent to 500 g/ha) on wheat seedlings; 100 = 100% disease control, 0 = no control; # = significant activity
Summary of the method: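 Compounds at 200 ppm (acetone 3%, 250 ppm Trem 014 in water; equivalent to 500 g/ha) sprayed to run-off on wheat seedlings, inoculated with spore dust the following day. Plants held at 20° C. for 7 days, then rated 0–100% disease control relative to untreated controls.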

Puccinia recondita = assay: Test B: wheat leaf rust, preventive spray on wheat seedlings, disease rating; format: in vivo, Puccinia recondita (on wheat seedlings); settings: 200 ppm test suspension sprayed to run-off (equivalent to 500 g/ha) on wheat seedlings; 100 = 100% disease control, 0 = no control; # = significant activity
Summary of the method: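 Wheat seedlings were sprayed to run-off with 200 ppm suspensions (≈500 g/ha; 3% acetone, 250 ppm Trem 014) and inoculated with Puccinia recondita spores the next day. Plants were held 24 h saturated at 20 °C, then 6 days at 20 °C. Disease control was rated 0-100 relative to untreated controls.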

Phytophthora infestans = format: in vivo, Phytophthora infestans (on tomato seedlings); settings: 200 ppm test suspension sprayed to run-off (equivalent to 500 g/ha) on tomato seedlings; 100 = 100% disease control, 0 = no control; # = significant activity

| SMILES | Test C disease control rating (rice blast) (Pyricularia oryzae) | Test E disease control rating (gray mold) (Botrytis cinerea) | Test A disease control rating (wheat powdery mildew) [1] | Test B disease control rating (wheat leaf rust) (Puccinia recondita) | Test D disease control rating (potato and tomato late blight) (Phytophthora infestans) |
| --- | --- | --- | --- | --- | --- |
| CC(NC(=O)C1(C)CC(Cl)(CCl)C1)c1ccc2ccccc2c1 (centres unmarked) [compound 64] | 53% | 0 (a rating of 0 indicates no disease control (relative to the controls)) | 0 (a rating of 0 indicates no disease control (relative to the controls)) | 0 (a rating of 0 indicates no disease control (relative to the controls)) | 91# % |
| CC(NC(=O)C1(C)CC(F)(F)C1)c1ccc(Br)cc1 (centres unmarked) [compound 67] | 99# % | 19% | 63% | 0 (a rating of 0 indicates no disease control (relative to the controls)) | 43% |
| CC(NC(=O)C1(C)CC(C)(Br)C1)c1ccc(Cl)cc1Cl (centres unmarked) [compound 68] | 97# % | 0 (a rating of 0 indicates no disease control (relative to the controls)) | 0 (a rating of 0 indicates no disease control (relative to the controls)) | 0 (a rating of 0 indicates no disease control (relative to the controls)) | 24% |
| CC(NC(=O)C1(C)CC(C)(Br)C1)c1ccc(Cl)cc1Cl (centres unmarked) [compound 69] | 100# (a rating of 100 indicates 100% disease control) | 0 (a rating of 0 indicates no disease control (relative to the controls)) | 0 (a rating of 0 indicates no disease control (relative to the controls)) | 0 (a rating of 0 indicates no disease control (relative to the controls)) | 24% |
| COc1cc(Br)ccc1C(C)NC(=O)C1(C)CC(C)(F)C1 (centres unmarked) [compound 70] | 97# % | 19% | 0 (a rating of 0 indicates no disease control (relative to the controls)) | 0 (a rating of 0 indicates no disease control (relative to the controls)) | 20% |
| CC(NC(=O)C1(C)CC(C)(Cl)C1)c1ccc(Cl)cc1Cl (centres unmarked) [compound 71] | 100# (a rating of 100 indicates 100% disease control) | 0 (a rating of 0 indicates no disease control (relative to the controls)) | 61% | 0 (a rating of 0 indicates no disease control (relative to the controls)) | 100# (a rating of 100 indicates 100% disease control) |
| CC(NC(=O)C1(C)CC(C)(Cl)C1)c1ccc(Cl)cc1Cl (centres unmarked) [compound 72] | 99# % | 0 (a rating of 0 indicates no disease control (relative to the controls)) | 91# % | 0 (a rating of 0 indicates no disease control (relative to the controls)) | 66% |
